The subject of one data set is SK-N-BE(2)C xenografts. As to the kind of experiment: PET quantification of tumour uptake, SK-N-BE(2)C xenografts. The format is in vivo, mice. How it is done: (§1) When the tumours reached approximately 100–200 mm^3, mice were anaesthetised with an isoflurane/O2 mixture (1.5–2.0% v/v) and intravenously injected with either ^18F-mFBG (~ 7.5 MBq) or ^123I-mIBG (~ 20 MBq). Mice were then imaged using an Albira PET/SPECT/CT scanner (Bruker, Coventry, UK). Whole body PET static images were acquired after 1 and 4 h post-injection (p.i.) for 10 min with an energy window of 358 to 664 keV followed by CT acquisition. Acquisition, reconstruction and image analysis were performed as described previously. Following the final scan, the mice were sacrificed and the major organs were excised, weighed and their associated radioactivity was measured using a γ-counter. Biodistribution and image quantification were expressed as a percentage of injected dose per gram of tissue (%ID/g), whereby 1 cm^3 on PET acquisitions were assumed to equal 1 g (n ≥ 3 mice ± SD).

The nature of data set [1]: Biodistribution and PET statements pooled over Kelly and SK-N-BE(2)C xenograft-bearing mice. The format is in vivo. Conditions: 1 h p.i. How it is done: as §1, with “Whole body PET static images were acquired after 1 and 4 h post-injection (p.i.) for 10 min with an energy window of 358 to 664 keV followed by CT acquisition.” left out
The next data set deals with T1, NET-1 (Homo sapiens, UniProt P23975).
T1 construct: SK-N-SH, SK-N-BE(2)C, Kelly, NBLS human NB cell lines; endogenous in cells; host or cells: SK-N-SH, SK-N-BE(2)C, Kelly, NBLS human neuroblastoma cell lines
Kind of data set: ^18F-mFBG / ^123I-mIBG uptake in NB cell lines with and without desipramine. The format is cell-based. Particulars: 1 h at 37 °C, rank among Kelly, SK-N-SH, NBLS. The source says: Figure 1 (a) Simplified radiosynthesis scheme of ^18F-mFBG by copper-mediated deborylation. (b) Total NET-1 protein expression in selected NB cell lines determined by Western blot. Full length blots are presented in Supplementary Figure WB1. […] Data are presented as mean ± SEM, n ≥ 2 per group, performed in triplicate. Graphs are generated using GraphPad Prism (v 8.4.1), https://www.graphpad.com.
For each cell line the cell-associated radioactivity was normalised to the number of cells and then each group was presented as a percentage of the signal acquired for SK-N-BE(2)C cells (mean of n = 3 independent experiments performed in triplicate ± SEM).

T1 sequence (P23975 whole entry): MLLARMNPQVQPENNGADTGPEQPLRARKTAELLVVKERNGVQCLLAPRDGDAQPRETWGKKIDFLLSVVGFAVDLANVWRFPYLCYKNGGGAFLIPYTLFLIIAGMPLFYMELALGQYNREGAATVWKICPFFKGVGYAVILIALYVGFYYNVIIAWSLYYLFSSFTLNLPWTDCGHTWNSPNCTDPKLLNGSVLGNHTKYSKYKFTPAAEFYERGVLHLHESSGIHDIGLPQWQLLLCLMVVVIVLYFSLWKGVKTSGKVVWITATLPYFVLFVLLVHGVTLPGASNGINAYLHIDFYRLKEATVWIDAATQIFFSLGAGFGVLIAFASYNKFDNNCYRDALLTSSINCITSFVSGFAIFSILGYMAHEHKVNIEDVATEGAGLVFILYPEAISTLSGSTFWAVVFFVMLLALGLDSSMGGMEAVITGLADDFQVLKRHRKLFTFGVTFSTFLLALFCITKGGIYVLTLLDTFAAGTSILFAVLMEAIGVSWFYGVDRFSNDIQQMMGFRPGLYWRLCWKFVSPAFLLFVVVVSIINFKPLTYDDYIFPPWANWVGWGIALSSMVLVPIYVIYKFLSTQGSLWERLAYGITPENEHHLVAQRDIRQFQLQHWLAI

In the data set on SK-N-BE(2)C xenografts (1 h p.i., n = 21), `N=C(N)NCc1cccc([18F])c1` [^18F-mFBG, ^18F-meta-fluorobenzylguanidine] came in with a PET tumour uptake of 2.46 ± 0.71 %ID/g. For the same compound, in the data set on SK-N-BE(2)C xenografts (4 h p.i., n = 15), the PET tumour uptake stood at 3.88 ± 1.15 %ID/g. Also, in data set [1], the “radiotracer uptake, brown adipose tissue (BAT)” value is listed as over 7.0 %ID/g; the “radiotracer uptake, heart” value was over 12.0 %ID/g; the “radiotracer uptake, small intestine” value is on record as ~ 8.0 %ID/g. For the same compound, the “cell-associated radioactivity, SK-N-BE(2)C” value at NET-1 is given as “greatest uptake”. Further, the “cell-associated radioactivity, Kelly” value at NET-1 (SK-N-BE(2)C) is recorded as “least uptake”.

The values are drawn from paper PMC7708446, “^18F-meta-fluorobenzylguanidine (^18F-mFBG) to monitor changes in norepinephrine transporter expression in response to therapeutic intervention in neuroblastoma models” (Scientific Reports, 2020).
